Molecular target: T1, hFXR (Homo sapiens, UniProt Q96RI1)
T1 construct: expressed in transfected cells; host or cells: CV-1 cells
T1 sequence (Q96RI1 1-486): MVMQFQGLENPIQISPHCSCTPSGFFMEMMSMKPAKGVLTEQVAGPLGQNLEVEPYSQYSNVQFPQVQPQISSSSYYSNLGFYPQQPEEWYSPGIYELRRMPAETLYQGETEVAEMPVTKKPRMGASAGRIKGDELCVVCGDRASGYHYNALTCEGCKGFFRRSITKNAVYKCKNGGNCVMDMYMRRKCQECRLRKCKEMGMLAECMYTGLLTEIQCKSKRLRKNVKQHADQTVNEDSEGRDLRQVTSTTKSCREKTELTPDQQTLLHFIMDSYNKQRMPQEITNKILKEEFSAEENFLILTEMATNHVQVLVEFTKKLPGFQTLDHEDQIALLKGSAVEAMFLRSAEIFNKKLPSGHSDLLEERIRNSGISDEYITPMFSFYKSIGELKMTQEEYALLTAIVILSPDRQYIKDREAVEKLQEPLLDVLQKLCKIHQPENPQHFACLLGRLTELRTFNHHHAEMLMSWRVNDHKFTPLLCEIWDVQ
T1 sequence (P19793 1-462 partner): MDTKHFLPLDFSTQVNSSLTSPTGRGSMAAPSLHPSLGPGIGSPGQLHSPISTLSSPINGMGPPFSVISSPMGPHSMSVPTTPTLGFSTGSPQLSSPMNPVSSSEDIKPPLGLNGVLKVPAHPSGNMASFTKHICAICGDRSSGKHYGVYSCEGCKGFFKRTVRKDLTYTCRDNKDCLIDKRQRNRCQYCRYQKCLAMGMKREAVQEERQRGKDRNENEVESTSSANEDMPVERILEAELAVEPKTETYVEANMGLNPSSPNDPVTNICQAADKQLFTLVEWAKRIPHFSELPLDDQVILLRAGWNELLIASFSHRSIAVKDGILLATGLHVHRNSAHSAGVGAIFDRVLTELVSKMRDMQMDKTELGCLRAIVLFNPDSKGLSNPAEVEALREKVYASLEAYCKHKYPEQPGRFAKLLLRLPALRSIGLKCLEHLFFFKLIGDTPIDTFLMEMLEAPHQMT
Assay: In Vitro FXR Assay (TK): TK-ECRE-luc reporter in transfected CV-1 cells
Type: cell-based
Conditions: CV-1 cells transfected with hFXR, hRXR, pCMX-YFP, 18 hrs incubation, luminescence
Description: Example B-1: In Vitro FXR Assay (TK)
CV-1 cells were seeded at a density of 2,000,000 cells in a T175 flask with DMEM+10% charcoal double-stripped FBS and incubated at 37° C. in 5% CO2 for 18 h (O/N).
After 18 h of incubation, the medium in the T175 flask was changed with fresh DMEM+10% charcoal super-stripped serum. In a polypropylene tube, 2500 μL OptiMEM (Life Technologies, Cat #31985-062) was combined with expression plasmids for hFXR, hRXR, TK-ECRE-luc and pCMX-YFP. The tube was then briefly vortexed and incubated at room temperature for 5 minutes. Transfection reagent (X-tremeGENE HP from Roche, Cat #06 366 236 001) was added to the OptiMEM/plasmid mixture vortexed and incubated at room temperature for 20 minutes. Following incubation, the transfection reagent/DNA mixture complex was added to cells in the T175 flask and the cells were incubated at 37° C. in 5% CO2 for 18 h (O/N).
Compounds were serially diluted in DMSO and added to transfected CV-1 cells. The cells were then incubated for 18 hrs. The next day cells were lysed and examined for luminescence.

| SMILES | EC50 [nM] |
| --- | --- |
| COc1ccc(C23CCC(CN(c4cc(-c5coc(C(C)(C)C)n5)ccn4)C(=O)[C@H]4CC[C@H](OC(=O)NCCCO)CC4)(CC2)CC3)cc1C [Compound 2, 4-((4-(2-(tert-Butyl)oxazol-4-yl)pyridin-2-yl)((4-(4-methoxy-3-methylphenyl)bicyclo[2.2.2]octan-1-yl)methyl)carbamoyl) (trans-cyclohexyl) (3-hydroxypropyl)carbamate] | ≤ 10 |
| COc1ccc(C23CCC(CN(c4cc(-c5cnc(C(C)(C)C)s5)ccn4)C(=O)[C@H]4CC[C@H](OC(=O)N5CCC(O)CC5)CC4)(CC2)CC3)cc1C [Compound 2.05, 4-((4-(2-(tert-Butyl)thiazol-5-yl)pyridin-2-yl)((4-(4-methoxy-3-methylphenyl)bicyclo[2.2.2]octan-1-yl)methyl)carbamoyl)cyclohexyl 4-hydroxypiperidine- trans-1-carboxylate] | ≤ 10 |
| COc1ccc(C23CCC(CN(c4cc(-c5coc(C(C)(C)C)n5)ccn4)C(=O)[C@H]4CC[C@H](OC(=O)N5CCC(N(C)C)C5)CC4)(CC2)CC3)cc1C (stereo partly drawn) [Compound 2.16, 4-((4-(2-(tert-Butyl)oxazol-4-yl)pyridin-2-yl)((4-(4-methoxy-3-methylphenyl)bicyclo[2.2.2]octan-1-yl)methyl)carbamoyl)cyclohexyl 3-(dimethylamino)pyrrolidine- trans-1-carboxylate] | 10 to 1000 |
| COc1ccc([C@H]2CC[C@H](CN(c3cc(-c4cnn(C(C)(C)C)c4)ccn3)C(=O)[C@H]3CC[C@H](OC(=O)N4CC(O)C4(C)C)CC3)CC2)cc1C (stereo partly drawn) [Compound 1.09, trans-4-((4-(1-(tert-Butyl)-1H-pyrazol-4-yl)pyridin-2-yl)((trans-4-(4-methoxy-3-methylphenyl)cyclohexyl)methyl)carbamoyl) cyclohexyl 3-hydroxy-2,2-dimethylazetidine-1-carboxylate] | ≤ 10 |
| COc1ccc(C23CCC(CN(c4cc(-c5coc(C(C)(C)C)n5)ccn4)C(=O)[C@H]4CC[C@H](OC(=O)N5CC(C)(O)C5)CC4)(CC2)CC3)cc1C [Compound 2.12, 4-((4-(2-(tert-Butyl)oxazol-4-yl)pyridin-2-yl)((4-(4-methoxy-3-methylphenyl)bicyclo[2.2.2]octan-1-yl)methyl)carbamoyl) (trans-cyclohexyl) 3-hydroxy-3-methylazetidine-1-carboxylate] | ≤ 10 |
| COc1ccc(C23CCC(CN(c4cc(-c5coc(C(C)(C)C)n5)ccn4)C(=O)[C@H]4CC[C@H](OC(=O)N5CCC(O)CC5)CC4)(CC2)CC3)cc1C [Compound 2.17, 4-((4-(2-(tert-Butyl)oxazol-4-yl)pyridin-2-yl)((4-(4-methoxy-3-methylphenyl)bicyclo[2.2.2]octan-1-yl)methyl)carbamoyl)cyclohexyl 4-hydroxypiperidine- trans-1-carboxylate] | ≤ 10 |
| COc1ccc(C23CCC(CN(c4ccnc(-c5cnn(C(C)(C)C)c5)c4)C(=O)[C@H]4CC[C@H](OC(=O)N5CC(O)C5)CC4)(CC2)CC3)cc1C [Compound 1.13, 4-((2-(1-(tert-Butyl)-1H-pyrazol-4-yl)pyridin-4-yl)((4-(4-methoxy-3-methylphenyl)bicyclo[2.2.2]octan-1-yl)methyl)carbamoyl) (trans-cyclohexyl) 3-hydroxyazetidine-1-carboxylate] | 10 to 1000 |
| COc1ccc(C23CCC(CN(c4cc(-c5cnc(C(C)(C)C)s5)ccn4)C(=O)[C@H]4CC[C@H](OC(=O)N5CCC(N(C)C)C5)CC4)(CC2)CC3)cc1C (stereo partly drawn) [Compound 2.09, 4-((4-(2-(tert-Butyl)thiazol-5-yl)pyridin-2-yl)((4-(4-methoxy-3-methylphenyl)bicyclo[2.2.2]octan-1-yl)methyl)carbamoyl)cyclohexyl 3-(dimethylamino)pyrrolidine- trans-1-carboxylate] | 10 to 1000 |
| COc1ccc([C@H]2CC[C@H](CN(c3cc(-c4coc(C(C)(C)C)n4)ccn3)C(=O)[C@H]3CC[C@H](OC(=O)N4CC(O)C4(C)C)CC3)CC2)cc1C (stereo partly drawn) [Compound 1.05, trans-4-((4-(2-(tert-Butyl)oxazol-4-yl)pyridin-2-yl)(((trans)-4-(4-methoxy-3-methylphenyl)cyclohexyl)methyl)carbamoyl) cyclohexyl 3-hydroxy-2,2-dimethylazetidine-1-carboxylate] | 10 to 1000 |
| COc1ccc(C23CCC(CN(c4cc(-c5coc(C(C)(C)C)n5)ccn4)C(=O)[C@H]4CC[C@H](OC(=O)N5CC(OCCO)C5)CC4)(CC2)CC3)cc1C [Compound 2.14, 4-((4-(2-(tert-Butyl)oxazol-4-yl)pyridin-2-yl)((4-(4-methoxy-3-methylphenyl)bicyclo[2.2.2]octan-1-yl)methyl)carbamoyl) (trans-cyclohexyl) 3-(2-hydroxyethoxy)azetidine-1-carboxylate] | ≤ 10 |
| COc1ccc(C23CCC(CN(c4cc(-c5coc(C(C)(C)C)n5)ccn4)C(=O)[C@H]4CC[C@H](OC(=O)N5CC(S(C)(=O)=O)C5)CC4)(CC2)CC3)cc1C [Compound 2.13, 4-((4-(2-(tert-Butyl)oxazol-4-yl)pyridin-2-yl)((4-(4-methoxy-3-methylphenyl)bicyclo[2.2.2]octan-1-yl)methyl)carbamoyl) (trans-cyclohexyl) 3-(methylsulfonyl)azetidine-1-carboxylate] | ≤ 10 |

The next lines start with the values.

| EC50 [nM] | SMILES |
| --- | --- |
| ≤ 10 | CCC(C)(CC)n1cc(-c2ccnc(N(CC34CCC(c5ccc(OC)c(C)c5)(CC3)CC4)C(=O)[C@H]3CC[C@H](OC(=O)N4CC(C)(O)C4)CC3)c2)cn1 [Compound 4.05, 4-(((4-(4-Methoxy-3-methylphenyl)bicyclo[2.2.2]octan-1-yl)methyl)(4-(1-(3-methylpentan-3-yl)-1H-pyrazol-4-yl)pyridin-2-yl)carbamoyl)cyclohexyl trans-3-hydroxy-3-methylazetidine-1-carboxylate] |
| ≤ 10 | CCC(C)(C)n1cc(-c2ccnc(N(CC34CCC(c5ccc(OC)c(C)c5)(CC3)CC4)C(=O)[C@H]3CC[C@H](OC(=O)N4CC(C)(O)C4)CC3)c2)cn1 [Compound 4.01, 4-(((4-(4-Methoxy-3-methylphenyl)bicyclo[2.2.2]octan-1-yl)methyl)(4-(1-(tert-pentyl)-1H-pyrazol-4-yl)pyridin-2-yl)carbamoyl) cyclohexyl trans-3-hydroxy-3-methylazetidine-1-carboxylate] |
| ≤ 10 | COc1c(C)cc(C23CCC(CN(c4cc(-c5cnn(C(C)(C)C)c5)ccn4)C(=O)[C@H]4CC[C@H](OC(=O)N5CC(O)C5)CC4)(CC2)CC3)cc1C [Compound 3.04, 4-((4-(1-(tert-Butyl)-1H-pyrazol-4-yl)pyridin-2-yl)((4-(4-methoxy-3,5-dimethylphenyl)bicyclo[2.2.2]octan-1-yl)methyl)carbamoyl) (trans-cyclohexyl) 3-hydroxyazetidine-1-carboxylate] |
| 10 to 1000 | COc1ccc(C23CCC(CN(c4nccc(-c5cnn(C(C)(C)C)c5)n4)C(=O)[C@H]4CC[C@H](OC(=O)N5CC(O)C5)CC4)(CC2)CC3)cc1C [Compound 3.14, 4-((4-(1-(tert-Butyl)-1H-pyrazol-4-yl)pyrimidin-2-yl)((4-(4-methoxy-3-methylphenyl)bicyclo[2.2.2]octan-1-yl)methyl)carbamoyl) (trans-cyclohexyl) 3-hydroxyazetidine-1-carboxylate] |

Reference: patent US11773094B2, “Farnesoid X receptor agonists and uses thereof” (Metacrine, Inc., priority 2018, dated 2023)
